The values that follow come from US12365667B2, “Sulfone pyridine alkyl amide-substituted heteroaryl compounds” (BRISTOL-MYERS SQUIBB COMPANY, priority 2017, dated 2025).

For the test, the system named is IFNα-induced STAT phosphorylation (pSTAT5) in human whole blood. Kind of test: IFNα-Induced STAT Phosphorylation in Human Whole Blood. Format: cell-based. As to conditions: 1 h incubation with compound, 1000 U/mL recombinant human IFNα A/D for 15 min, pSTAT5 in CD3 positive population, read-out: IFNα-Induced Stat Phosph. (IC50). On the procedure: IFNα-Induced STAT Phosphorylation in Human Whole Blood
After an hour long incubation with compound, human whole blood (drawn with either EDTA or ACD-A as anti-coagulant) was stimulated with 1000 U/mL recombinant human IFNα A/D (R&D Systems 11200-2) for 15 min. The stimulation was stopped by adding Fix/Lyse buffer (BD 558049). Cells were stained with a CD3 FITC antibody (BD 555916), washed, and permeabilized on ice using Perm III buffer (BD 558050). Cells were then stained with an Alexa-Fluor 647 pSTAT5 (pY694) antibody (BD 612599) for 30 min prior to analysis on the FACS Canto II. The amount of pSTAT5 expression was quantitated by median fluorescence intensity after gating on the CD3 positive population.

Where two headings read alike, the source gives them in different places.

A word on the IC50: it is the midpoint of a concentration-inhibition curve. In the case of `CNC(=O)c1nnc(Nc2cn(C3CC3)nn2)cc1Nc1ncccc1S(C)(=O)=O` [Example 56], the IC50 turned out to be 18 nM.

For `CCCn1cc(Nc2cc(Nc3ncccc3S(C)(=O)=O)c(C(=O)NC)nn2)nn1` [Example 57], the half-inhibitory concentration (IC50) was determined as 59 nM.

In the case of `CNC(=O)c1nnc(Nc2cc(C)on2)cc1Nc1ncccc1S(C)(=O)=O` [Example 58], the IC50 stood at 24 nM.

Regarding `CNC(=O)c1nnc(Nc2cc(C3CC3)c(C#N)cn2)cc1Nc1ncccc1S(C)(=O)=O` [Example 59], the IC50 was determined as 219 nM.

Take `CNC(=O)c1nnc(Nc2cc(C)nc(C3CC3)n2)cc1Nc1ncccc1S(C)(=O)=O` [Example 61]: the concentration for half-maximal inhibition (IC50) turned out to be 18 nM.

For `CNC(=O)c1nnc(Nc2ccc(OC3CCOC3)nn2)cc1Nc1ncccc1S(C)(=O)=O` (stereo not drawn) [Example 63], the IC50 was determined as 13 nM.

Take `CNC(=O)c1nnc(Nc2ccc(OCCOC)nn2)cc1Nc1ncccc1S(C)(=O)=O` [Example 64]: the half-inhibitory concentration (IC50) was found to be 79 nM.

`CNC(=O)c1nnc(Nc2ccc(C(C)(C)NC(=O)CN)nn2)cc1Nc1ncccc1S(C)(=O)=O` [Example 65]: the IC50 amounted to 193 nM.

With `CNC(=O)c1nnc(NC(=O)C2Cc3ccccc32)cc1Nc1ncccc1S(C)(=O)=O` (stereo not drawn) [Example 66], the half-inhibitory concentration (IC50) was 1240 nM.

`CNC(=O)c1nnc(Nc2ccc(C(C)(C)OC(=O)CN)cn2)cc1Nc1ncccc1S(C)(=O)=O` [Example 67]: the IC50 was 3580 nM.

In the case of `[2H]C([2H])([2H])NC(=O)c1nnc(Nc2ccc(CNC(C)=O)cn2)cc1Nc1ncccc1S(C)(=O)=O` [Example 69, 6-((5-(acetamidomethyl)pyridin-2-yl)amino)-N-(methyl-d3)-4-((3-(methylsulfonyl)pyridin-2-yl)amino)pyridazine-3-carboxamide], the IC50 (Homo sapiens) turned out to be 12 nM.

For the compound `CNC(=O)c1nnc(Nc2cc(C(C)(C)NC(C)=O)ccn2)cc1Nc1ncccc1S(C)(=O)=O` [Example 70], the half-inhibitory concentration (IC50) is 1100 nM.

For the compound `CNC(=O)c1nnc(Nc2cc(C(C)(C)NC(C)C)ccn2)cc1Nc1ncccc1S(C)(=O)=O` [Example 72], the IC50 was determined as 23 nM.

`CNC(=O)c1nnc(Nc2cc(C(C)(C)N(C)C)ccn2)cc1Nc1ncccc1S(C)(=O)=O` [Example 73]: the IC50 was found to be 76 nM.

For the compound `CNC(=O)c1nnc(Nc2ccc(C(C)(C)NC(=O)OC)cn2)cc1Nc1ncccc1S(C)(=O)=O` [Example 74], the IC50 turned out to be 4 nM.

Consider `CNC(=O)c1nnc(Nc2ccc(C(C)(C)N3CCOC3=O)cn2)cc1Nc1ncccc1S(C)(=O)=O` [Example 75], for which the IC50 was 18 nM.

As for `CNC(=O)c1nnc(Nc2ccc(C(C)(C)N3CCCC3=O)cn2)cc1Nc1ncccc1S(C)(=O)=O` [Example 76], the IC50 was 20 nM.

As for `CNC(=O)c1nnc(Nc2ccc(OCC(C)(C)O)cn2)cc1Nc1ncccc1S(C)(=O)=O` [Example 77], the IC50 is 398 nM.

For `CNC(=O)c1nnc(Nc2ccc(C(C)(C)NC(=O)OC(C)C)cn2)cc1Nc1ncccc1S(C)(=O)=O` [Example 78], the IC50 turned out to be 40 nM.

Take `CCOC(=O)NC(C)(C)c1ccc(Nc2cc(Nc3ncccc3S(C)(=O)=O)c(C(=O)NC)nn2)nc1` [Example 79]: the IC50 was 24 nM.

Take `CNC(=O)c1nnc(Nc2cnc(OC)cn2)cc1Nc1ncccc1S(C)(=O)=O` [Example 80]: the IC50 amounted to 57 nM.

As for `CNC(=O)c1nnc(Nc2ccc(N3CCOCC3)cn2)cc1Nc1ncccc1S(C)(=O)=O` [Example 81], the IC50 came out at 3 nM.

Consider `CNC(=O)c1nnc(Nc2cccc(C)n2)cc1Nc1ncccc1S(C)(=O)=O` [Example 82], for which the IC50 amounted to 37 nM.

As for `CCOc1ccc(Nc2cc(Nc3ncccc3S(C)(=O)=O)c(C(=O)NC)nn2)nn1` [Example 83], the IC50 is 76 nM.

For the compound `CNC(=O)c1nnc(Nc2cc(COC)ncn2)cc1Nc1ncccc1S(C)(=O)=O` [Example 84], the 50% inhibitory concentration (IC50) stood at 42 nM.

Turning to `CNC(=O)c1nnc(Nc2ccc(C)nn2)cc1Nc1ncccc1S(C)(=O)=O` [Example 85], the IC50 amounted to 11 nM.

On to `CNC(=O)c1nnc(Nc2ccc(F)nn2)cc1Nc1ncccc1S(C)(=O)=O` [Example 86], for which the IC50 stood at 40 nM.
